The values below come from US9255150B2, “Remedies for pemphigus containing anti-Fas ligand antibodies” (PINCELL SRL, priority 2008, dated 2016).

What all share (format): cell-based, human
Assay [1] deals with keratinocytes. The experiment in a line: Pemphigus sera-induced Dsg3 cleavage and caspase-8 activation in confluent keratinocytes, Western blotting. The note with it: pretreatment with Z-IETD-FMK 100 μM for 30 min or NOK2 15 μg/ml, then 72 hrs sera; FIG. 12A. How it is done:
To investigate whether the extrinsic apoptotic pathway is responsible for dsg cleavage, we pretreated confluent keratinocytes with caspase-8 inhibitor Z-IETD-FMK (100 μM for 30 min) or with anti-FasL (NOK2, 15 μg/ml)Ab. Then cells were incubated for 72 hrs with healthy or untreated pemphigus sera. Protein extracts from the culture were analyzed by Western blotting using anti-Dsg3 antibodies and anti-caspase-8 Ab. Vinculin was used as internal control. (FIG. 12A).

Assay [2] deals with keratinocytes. The experiment in a line: Pemphigus sera-induced keratinocyte apoptosis, TUNEL staining. The following applies: sera pretreated with anti-FasL neutralizing antibody (2.5 mg per ml for 30 min) or Z-IETD-FMK (100 μM for 30 min); FIG. 6. The method, then: As apoptotic keratinocytes are abundantly expressed in pemphigus, we wanted to explore whether pemphigus sera are capable of inducing apoptosis in normal human keratinocytes. To this purpose, keratinocytes were plated in chamber slides and cultured in serum-free medium (KGM) up to preconfluence. Cells were then cultured in keratinocyte basal medium and treated for 48 h with the addition of 25% serum from either untreated patients or patients treated with systemic corticosteroids. Sera from healthy subjects were used as controls. Apoptosis was evaluated by TUNEL staining in situ. Approximately 100 cells were evaluated, in randomly selected fields, and the percentage of TUNEL-positive cells was counted.
FasL is one of the major triggers of the caspase-8 activated extrinsic apoptotic pathway. Therefore, we wanted to evaluate whether this pathway plays a role in pemphigus apoptosis. To this purpose, patient sera were pretreated with anti-FasL neutralizing antibody or caspase-8 inhibitor, and added to keratinocyte cultures. Keratinocytes were cultured in KGM and treated with pemphigus sera or with sera from untreated patients. Sera were pretreated with anti-FasL neutralizing antibody (2.5 mg per ml for 30 min) or caspase-8 inhibitor Z-IETD-FMK (100 μM for 30 min). Apoptosis was evaluated by TUNEL staining.

Assay [3] deals with keratinocytes. The assay can be described thus: Pemphigus sera-induced cell detachment (acantholysis) of keratinocytes. The following applies: pretreatment with Z-IETD-FMK 100 μM for 30 min or NOK2 15 μg/ml, then 72 hrs sera; FIG. 12B.

Peptide text beside a SMILES is read from it. * marks the point of attachment. Cbz = O=C(OCc1ccccc1)*; CH2F = FC*

In the case of `CC[C@H](C)[C@H](NC(=O)OCc1ccccc1)C(=O)N[C@@H](CCC(=O)OC)C(=O)N[C@H](C(=O)N[C@@H](CC(=O)OC)C(=O)CF)[C@@H](C)O` [Z-IETD-FMK] (Cbz-IE(OMe)TD(OMe)-CH2F), in the assay with keratinocytes [1], the “caspase-8 activation induced by untreated pemphigus sera” value is listed as “prevents” and the “dsg cleavage (Dsg3) induced by untreated pemphigus sera” value was “prevents”. Besides, the “pemphigus sera-induced keratinocyte apoptosis (TUNEL staining)” value with keratinocytes [2] is recorded as “partially prevented”. Further, the “cell detachment (i.e. acantholysis) induced by untreated pemphigus sera” value in the assay on keratinocytes [3] is listed as “prevented”.
